Patent publication US20210196673A1 (priority 2018, published 2021)
Converted amounts (≈) assume the structure as drawn. Read-outs that look alike come from different tables or passages of the source.

Columns and labels:
Vero cells = experiment: Primary CPE assay in Vero cells (cytotoxicity, CC50); type: cell-based
SARS-CoV-2 [1] = experiment: Secondary VYR (virus yield reduction) assay in Caco-2 cells; type: cell-based
Protocol: The secondary VYR assay in Caco-2 cells: Near-confluent cell culture monolayers of Caco-2 cells were prepared in 96-well disposable microplates the day before testing. Cells were maintained in MEM supplemented with 10% FBS. The same medium was used for antiviral assays and FBS was reduced to 2%, supplemented with 50-μg/ml gentamicin. EGCG was dissolved in serum-free MEM in a series of 2×dilutions from 100 μg/ml to 0.78 μg/ml. The EGCG diliutions were mixed and incubated with SARS-CoV-2 at 200 CCID50 (50% cell culture infectious dose) in 0.1 ml volume for 1 h prior to adding to the cell culture for 1 h absorption. Following absorption, the unabsorbed SARS-CoV-2 along with medium/EGCG was removed and fresh MEM was added to the cell culture for viral yield detection in comparison to untreated infection control. Five microwells were used per dilution: three for infected cultures and two for uninfected toxicity cultures. Controls for the experiment consist of six microwells that were infected and not treated (virus controls) and six that were untreated and uninfected (cell controls) on every plate. Medium devoid of virus was placed in toxicity control wells and cell control wells. Plates were incubated at 37° C. with 5% CO2 for 72 hours. A sample of supernatant was taken from each infected well (three replicate wells were pooled) and tested immediately. To evaluate toxicity, the plates were stained with 0.011% neutral red dye for approximately two hours at 37° C. in a 5% CO2 incubator. The neutral red medium was removed by complete aspiration, and the cells were rinsed 1× with phosphate buffered solution (PBS) to remove residual dye. The PBS is completely removed, and the incorporated neutral red was eluted with 50% Sorensen's citrate buffer/50% ethanol for at least 30 minutes. As larger the number of viable cells present in the wells, when the neutral red dye penetrated into the living cells, the more intense the red color appeared. The dye content in each well was quantified using a spectrophotometer at 540 nm wavelength. The dye content in each set of wells was converted to a percentage of dye present in untreated control wells using a Microsoft Excel computer-based spreadsheet and normalized based on the virus control. The 50% cytotoxic (CC50, cell-inhibitory) concentrations were then calculated by regression analysis.
The VYR test indicates how much EGCG inhibits virus entry and replication. Virus yielded in the presence of EGCG was titrated and compared to virus titers from the untreated virus controls. Titration of the viral samples (collected as described in the paragraph above) was performed by endpoint dilution (Reed-Muench method). Serial 1/10 dilutions of virus were made and plated into 4 replicate wells containing fresh cell monolayers of Vero 76 cells. Plates were then incubated, and cells were scored for the presence or absence of virus after distinct CPE was observed. The TCID50 values were calculated using the Reed-Muench method. The 90% (one log10) effective concentration (EC90) was calculated by regression analysis by plotting the log10 of the inhibitor concentration versus log10 of virus produced at each concentration. The quotient of CC50 divided by EC90 gave the selectivity index (SI) value. Compounds showing SI values ≥10 are considered active.

[2] = Stability of powder and liquid forms; type: physicochemical; conditions: for stability of powder form on storage: 5° C.
[3] = molecular target: transmembrane protease serine 2 (TMPRSS2) (Homo sapiens, UniProt O15393); conditions: in vitro study; cited from earlier work
[4] = molecular target: SARS-CoV 3C-like protease (3CLPro) (Severe acute respiratory syndrome coronavirus, UniProt P0C6X7); conditions: cited from earlier work
influenza virus = conditions: cited from earlier work
SARS-CoV-2 [5] = experiment: Primary CPE assay in Vero cells (antiviral)
[6] = molecular target: SARS-CoV nucleocapsid (N) protein (Severe acute respiratory syndrome coronavirus, UniProt P59595); conditions: cited from earlier work
H1N1 virus [7] = type: cell-based, influenza A virus
H1N1 virus [8] = type: cell-based, influenza A virus; remark: listed apart in the source
H1N1 virus [9] = type: cell-based, influenza A virus; remark: listed apart in the source
MDCK cells = experiment: Cell viability, MTT assay; type: cell-based; conditions: 1 hour incubation
Protocol: Cell Viability: This experiment tested if EC16 formulations were associated with cytotoxicity in MDCK cells. MDCK cells were cultured in a 96 well plate until confluent. MEM serum free medium, MEM medium with 10% carrier and 20% carrier (carrier controls), or MEM medium containing 0.1% EC16 and 10% or 20% carrier was added to the wells followed by a 1 hour incubation at 35° C. with 5% CO2. The medium was then changed to 200 μl fresh MEM serum free medium with 0.2 μg/ml trypsin in each well and incubated overnight under the same condition. The plate was removed from the cell culture incubator and an MTT assay was performed according to a method described previously (Yamamoto, T., et al., Anticancer Research, 24:3065-3073 (2004)).

H1N1 virus [10] = tested on: H1N1 virus
H1N1 virus [11] = tested on: H1N1 virus; remark: listed apart in the source
[12] = EGCG 50 μg/ml (0.005%), Caco-2 cells
[13] = EGCG 100 μg/ml (0.01%), Caco-2 cells

Chain of SARS-CoV nucleocapsid (N) protein (P59595 whole entry, looked up): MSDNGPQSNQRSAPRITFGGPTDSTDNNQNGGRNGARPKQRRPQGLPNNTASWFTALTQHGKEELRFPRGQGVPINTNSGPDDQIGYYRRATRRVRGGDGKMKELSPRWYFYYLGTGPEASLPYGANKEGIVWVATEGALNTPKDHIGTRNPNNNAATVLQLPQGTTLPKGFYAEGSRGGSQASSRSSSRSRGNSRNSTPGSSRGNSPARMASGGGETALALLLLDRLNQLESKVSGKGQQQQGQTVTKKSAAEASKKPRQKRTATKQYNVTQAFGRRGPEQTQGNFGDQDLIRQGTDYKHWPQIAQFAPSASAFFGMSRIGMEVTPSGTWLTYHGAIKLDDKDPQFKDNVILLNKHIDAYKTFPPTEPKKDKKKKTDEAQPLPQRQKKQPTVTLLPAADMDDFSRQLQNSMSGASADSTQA
Chain of transmembrane protease serine 2 (TMPRSS2) (O15393 whole entry): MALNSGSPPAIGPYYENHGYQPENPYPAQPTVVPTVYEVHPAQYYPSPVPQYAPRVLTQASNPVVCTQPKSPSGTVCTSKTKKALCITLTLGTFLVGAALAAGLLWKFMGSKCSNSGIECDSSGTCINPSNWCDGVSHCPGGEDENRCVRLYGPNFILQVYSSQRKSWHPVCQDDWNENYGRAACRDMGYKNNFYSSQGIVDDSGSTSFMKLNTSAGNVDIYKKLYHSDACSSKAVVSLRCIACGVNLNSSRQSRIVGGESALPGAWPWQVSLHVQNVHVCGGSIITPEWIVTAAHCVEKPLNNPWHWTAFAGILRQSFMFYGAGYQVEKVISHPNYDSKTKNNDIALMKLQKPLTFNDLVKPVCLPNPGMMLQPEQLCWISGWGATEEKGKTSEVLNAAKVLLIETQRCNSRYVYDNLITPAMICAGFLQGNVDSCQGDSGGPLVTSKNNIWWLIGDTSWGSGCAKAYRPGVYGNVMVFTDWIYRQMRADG

In the case of `O=C(O[C@@H]1Cc2c(O)cc(O)cc2O[C@@H]1c1cc(O)c(O)c(O)c1)c1cc(O)c(O)c(O)c1` [EGCG, (−)-epigallocatechin-3-gallate], the “CC50 (NR)” value (Vero cells; neutral red (NR) readout) is reported as 2.3 µg/mL (≈ 5.02 µM), the “CC50 (VIS)” value (Vero cells; visual (VIS) readout) is reported as 3.2 µg/mL (≈ 6.98 µM) and the “concentration that inhibited 90% of viral yield (EC90)” value (SARS-CoV-2 [1]; Caco-2 cells, value of b285) is reported as 28 µg/mL. The “reduction in virus titer” value (SARS-CoV-2 [1]; [12]) was 1.8 log 10, the “reduction of viral yield” value (SARS-CoV-2 [1]; [12]) was 98.41% and the “reduction in virus titer” value (SARS-CoV-2 [1]; [13]) was > 3.6 log 10. For the same compound, the “reduction of viral yield” value (SARS-CoV-2 [1]; [13]) was > 99.975%, the antiviral activity (SARS-CoV-2 [1]; EGCG at or lower than 25 μg/ml (0.0025%), Caco-2 cells) was “the activity was not detected” and the “Viral titer of EGCG treated TCID50 values” (SARS-CoV-2 [1]; concentration 0.78 μg/ml) was 5.3 lon10. For the same compound, the “Viral titer of EGCG treated TCID50 values” (SARS-CoV-2 [1]; concentration 1.56 μg/ml) was 5.0 lon10, the “Viral titer of EGCG treated TCID50 values” (SARS-CoV-2 [1]; concentration 3.13 μg/ml) was 5.0 lon10 and the “Viral titer of EGCG treated TCID50 values” (SARS-CoV-2 [1]; concentration 6.25 μg/ml) was 5.5 lon10. For the same compound, the “Viral titer of EGCG treated TCID50 values” (SARS-CoV-2 [1]; concentration 12.5 μg/ml) was 5.3 lon10, the “Viral titer of EGCG treated TCID50 values” (SARS-CoV-2 [1]; concentration 25 μg/ml) was 5.0 lon10 and the “Viral titer of EGCG treated TCID50 values” (SARS-CoV-2 [1]; concentration 50 μg/ml) was 3.5 lon10. The “Viral titer of EGCG treated TCID50 values” (SARS-CoV-2 [1]; concentration 100 μg/ml) was <1.7 lon10, the “SIgo (CC50/EC90)” value (SARS-CoV-2 [1]; selectivity index) was > 23 and the “stability in aqueous solution” value ([2]; aqueous solution) was “not stable”. The “stability in dry powder form” value [2] was “stable”, the “stability of powder form on storage” value [2] was “stable at 5 °C for two years” and the “CC50 (cytotoxicity)” value (Caco-2 cells; Caco-2 cells, neutral red, value of b285) was > 100 µg/mL. For the same compound, the CC50 (Caco-2 cells; Neutral Red (Toxicity) assay, value of b289) was > 100 µg/mL, the “inhibition of TMPRSS2” value [3] was “inhibited TMPRSS2” and the “inhibition of 3C^pro activity” value [4] was 80%. The “inhibition of SARS-CoV 3C-like protease” value [4] was “significantly inhibited”, the “effect of direct contact with influenza virus” value (influenza virus; direct contact of EGCG with virus, cell culture) was “inactivation of viral infectivity” and the “anti-viral activity after pre-incubation of cells” value (influenza virus; pre-incubation of cells with EGCG, no contact with the virus) was “does not show anti-viral activity”. The “EC50, inhibition of CPE (NR)” value (SARS-CoV-2 [5]; neutral red (NR) readout) was 0.27 µg/mL and the “EC50, inhibition of CPE (VIS)” value (SARS-CoV-2 [5]; visual (VIS) readout) was 0.23 µg/mL.
In the case of `O=C(O[C@@H]1Cc2c(O)cc(O)cc2O[C@H]1c1cc(O)c(O)c(O)c1)c1cc(O)c(O)c(O)c1` [GCG, gallocatechin gallate], the “inhibitory effect against SARS-CoV nucleocapsid (N) protein” value [6] is listed as “remarkable inhibitory effect” and the “inhibition of SARS-CoV 3C-like protease” value [4] is listed as “significantly inhibited”.
With “(−)-epigallocatechin-3-gallate-palmitate [EC16]” the “stability in dry powder form” value [2] was “stable”, the “stability in proper liquid formulations” value ([2]; liquid formulations) was “stable” and the “stability of powder form on storage” value [2] was “stable at 5 °C for two years”. For the same compound, the “H1N1 infectivity, % of control” value (H1N1 virus [7]; 0.01% EC16 in 10% carrier, 1 minute contact, n=3) was 20.5%±17.1, the “H1N1 infectivity, % of control” value (H1N1 virus [7]; 0.01% EC16 in 20% carrier, separate experiments) was 7.3%±9.2 and the “H1N1 infectivity, % of control” value (H1N1 virus [7]; 0.1% EC16 in 10% carrier, 1 minute contact, first three replicates) was 6.1%±3.0. The “H1N1 infectivity, % of control” value (H1N1 virus [7]; 0.1% EC16 in 10% carrier, additional three replicate experiments) was 3.8%±1.5, the “H1N1 infectivity, % of control” value (H1N1 virus [7]; 0.1% EC16 in 10% carrier, overall mean (n=6)) was 5.0%±2.4 and the “H1N1 infectivity, % of control” value (H1N1 virus [7]; 0.1% EC16 in 20% carrier, 1 minute contact) was 2.4%±1.1. The “cells protected from H1N1 infection” value (H1N1 virus [8]; 0.05% EC16, washed and 1 hour without EC16) was 90%, the “block of H1N1 infection” value (H1N1 virus [8]; 0.1% EC16, 2 hours after first application, washed and 1 hour without EC16) was “almost completely blocked” and the “viral TCID50, % of control” value (H1N1 virus [9]) was 15.4%±15.2. The “cell viability (MTT) versus MEM control” value (MDCK cells; 0.1% EC16 in 10% carrier) was “not statistically different from the MEM control”, the “cell viability (MTT) versus MEM control” value (MDCK cells; 0.1% EC16 in 20% carrier) was “not statistically different from the MEM control” and the “viral titer (viability), % of control” value (H1N1 virus [10]; 0.01% EC16 in 10% carrier, 1 hour pre-treatment, n=4) was 100%. For the same compound, the “infectivity, % of control” value (H1N1 virus [10]; 0.01% EC16 in 20% carrier, 1 hour pre-treatment) was 2.3%±0.9, the “infectivity, % of control” value (H1N1 virus [10]; 0.1% EC16 in 10% carrier, 1 hour pre-treatment) was 10.5%±3.6 and the reduction in titer (H1N1 virus [10]; 0.1% EC16 in 20% carrier) was 42 fold. For the same compound, the “infectivity, % of control” value (H1N1 virus [10]; 0.1% EC16 in 20% carrier, 1 hour pre-treatment, n=7) was 2.4%±1.6, the “viral titer in comparison to control” value (H1N1 virus [10]; EC16 0 to 0.1% in 2% DMSO instead of carrier) was “did not result in a statistically significant difference” and the “remaining viability (infectivity), mean” value (H1N1 virus [11]; 0.01% EC16 in 10% carrier, 10 minutes) was 48.4%±46.4. The “infectivity, mean % of control” value (H1N1 virus [11]; 0.01% EC16 in 20% carrier, 30 minutes) was 7.6%±7.2, the “infectivity, mean % of control” value (H1N1 virus [11]; 0.1% EC16 in 10% carrier, 10 minutes) was 9.5%±1.4 and the “infectivity, mean % of control” value (H1N1 virus [11]; 0.1% EC16 in 20% carrier, 10 minutes) was 12.1%±5.8. For the same compound, the “infectivity, mean % of control” value (H1N1 virus [11]; 0.1% EC16 in 20% carrier, 30 minutes) was 0.9%±0.7.
